Active and inactive are the calls of the source. No cut-off for these calls is given here. Non-standard residues stand in square brackets, D forms with d. Residues, ends and D or L forms follow the SMILES beside them. βAla = NCCC(=O)O

In series [1] the test system is U-251. The series can be described thus: Protection against anthrax PA63-lethal toxin complex-induced cytotoxicity in human U251 cells at 20 uM at 400 ng/ml by MTT test. Type of series: cell-based. (In general: Tetrazolium dyes change colour on reduction, which living cells bring about.)
Series [2] concerns Bacillus anthracis. The series can be described thus: Protection against Bacillus anthracis Sterne spores infected A/J mouse assessed as survival at 12.5 mg/kg, ip administered once daily for 6 days. Type of series: functional. The note with it: route intraperitoneal.
Series [3] has as its system Bacillus anthracis. The series can be described thus: Protection against Bacillus anthracis Sterne spores infected A/J mouse at 12.5 mg/kg, ip administered once daily for 6 days. Type of series: functional. To be noted: route intraperitoneal.
The test system of series [4] is Bacillus anthracis. The series can be described thus: Protection against Bacillus anthracis Sterne spores infected A/J mouse assessed as survival at 25 mg/kg, sc administered daily after 4 days post infection. To be noted: route subcutaneous. Type of series: functional.
Series [5] addresses T1, Proprotein convertase subtilisin/kexin type 7 (Homo sapiens, UniProt Q16549).
T1 sequence (Q16549 whole entry): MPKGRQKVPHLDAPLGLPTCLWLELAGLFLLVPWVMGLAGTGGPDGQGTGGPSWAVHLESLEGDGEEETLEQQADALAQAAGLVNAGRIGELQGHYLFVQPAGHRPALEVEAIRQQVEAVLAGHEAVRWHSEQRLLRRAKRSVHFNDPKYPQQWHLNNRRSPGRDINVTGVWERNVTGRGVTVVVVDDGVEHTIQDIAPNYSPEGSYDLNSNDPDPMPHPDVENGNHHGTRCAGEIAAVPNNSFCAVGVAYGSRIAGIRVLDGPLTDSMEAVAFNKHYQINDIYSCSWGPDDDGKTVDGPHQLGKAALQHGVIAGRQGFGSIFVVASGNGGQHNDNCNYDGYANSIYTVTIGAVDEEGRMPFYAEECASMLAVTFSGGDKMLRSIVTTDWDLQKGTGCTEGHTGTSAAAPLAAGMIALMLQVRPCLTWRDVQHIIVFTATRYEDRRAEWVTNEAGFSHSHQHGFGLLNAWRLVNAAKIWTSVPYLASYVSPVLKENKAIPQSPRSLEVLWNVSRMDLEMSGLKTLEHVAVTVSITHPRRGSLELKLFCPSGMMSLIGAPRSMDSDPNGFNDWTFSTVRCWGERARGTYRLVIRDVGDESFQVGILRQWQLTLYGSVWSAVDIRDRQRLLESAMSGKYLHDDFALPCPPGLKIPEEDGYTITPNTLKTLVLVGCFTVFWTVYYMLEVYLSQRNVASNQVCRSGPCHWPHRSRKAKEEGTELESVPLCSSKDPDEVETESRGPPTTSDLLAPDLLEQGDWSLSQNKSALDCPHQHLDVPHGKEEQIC

Series [6] has as its target T2, Furin (Homo sapiens, UniProt P09958).
Series [7] deals with T3, Proprotein convertase subtilisin/kexin type 6 (Rattus norvegicus, UniProt Q63415).
T3 sequence (Q63415 whole entry): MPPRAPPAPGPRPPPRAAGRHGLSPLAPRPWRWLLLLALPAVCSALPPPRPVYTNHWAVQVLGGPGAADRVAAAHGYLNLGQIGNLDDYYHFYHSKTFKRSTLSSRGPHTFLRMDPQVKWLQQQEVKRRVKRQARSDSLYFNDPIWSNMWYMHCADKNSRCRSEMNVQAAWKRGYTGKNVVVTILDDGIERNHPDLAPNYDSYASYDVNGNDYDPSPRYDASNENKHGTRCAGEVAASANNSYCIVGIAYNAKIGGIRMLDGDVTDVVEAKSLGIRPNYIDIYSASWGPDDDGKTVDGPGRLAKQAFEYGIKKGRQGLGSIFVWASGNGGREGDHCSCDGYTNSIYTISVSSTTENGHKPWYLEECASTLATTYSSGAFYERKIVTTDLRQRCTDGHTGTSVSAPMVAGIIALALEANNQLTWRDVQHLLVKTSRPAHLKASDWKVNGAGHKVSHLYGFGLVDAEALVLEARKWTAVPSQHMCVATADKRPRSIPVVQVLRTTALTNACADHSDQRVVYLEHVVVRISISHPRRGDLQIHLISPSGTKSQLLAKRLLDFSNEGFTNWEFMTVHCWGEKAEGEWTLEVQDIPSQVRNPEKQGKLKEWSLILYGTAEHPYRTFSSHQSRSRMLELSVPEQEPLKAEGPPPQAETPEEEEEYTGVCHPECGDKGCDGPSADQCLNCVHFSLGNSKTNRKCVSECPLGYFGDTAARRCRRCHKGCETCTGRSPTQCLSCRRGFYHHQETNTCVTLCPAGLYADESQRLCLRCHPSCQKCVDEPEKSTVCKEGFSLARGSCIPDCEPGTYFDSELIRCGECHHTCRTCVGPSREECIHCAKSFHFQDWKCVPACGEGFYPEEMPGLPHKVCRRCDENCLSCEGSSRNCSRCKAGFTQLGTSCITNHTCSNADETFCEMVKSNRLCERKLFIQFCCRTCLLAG

Series [8] addresses Proprotein convertase subtilisin/kexin type 5 (Homo sapiens, UniProt Q92824).
In series [9] the target is T4, Proprotein convertase subtilisin/kexin type 4 (Homo sapiens, UniProt Q6UW60).
T4 sequence (Q6UW60 whole entry): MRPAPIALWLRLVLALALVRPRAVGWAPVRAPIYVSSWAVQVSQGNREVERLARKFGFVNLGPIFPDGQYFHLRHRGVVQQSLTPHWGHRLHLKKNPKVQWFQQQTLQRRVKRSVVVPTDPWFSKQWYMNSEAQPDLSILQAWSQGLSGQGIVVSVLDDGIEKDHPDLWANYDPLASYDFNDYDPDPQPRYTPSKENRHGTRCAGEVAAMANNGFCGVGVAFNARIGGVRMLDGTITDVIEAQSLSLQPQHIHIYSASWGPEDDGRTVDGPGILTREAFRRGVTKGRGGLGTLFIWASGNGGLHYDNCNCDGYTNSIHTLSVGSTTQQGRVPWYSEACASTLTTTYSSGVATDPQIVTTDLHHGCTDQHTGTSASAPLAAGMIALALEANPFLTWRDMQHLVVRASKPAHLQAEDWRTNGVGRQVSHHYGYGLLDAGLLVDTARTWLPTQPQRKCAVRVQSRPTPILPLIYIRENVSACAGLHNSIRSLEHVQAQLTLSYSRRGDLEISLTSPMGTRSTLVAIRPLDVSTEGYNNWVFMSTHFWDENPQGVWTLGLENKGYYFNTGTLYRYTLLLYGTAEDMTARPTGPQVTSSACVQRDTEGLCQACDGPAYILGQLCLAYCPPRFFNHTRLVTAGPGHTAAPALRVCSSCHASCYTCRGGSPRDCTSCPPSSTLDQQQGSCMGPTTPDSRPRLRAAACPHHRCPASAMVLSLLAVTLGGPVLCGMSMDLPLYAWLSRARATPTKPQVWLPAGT

A further series concerns Mus musculus. The series can be described thus: Protection against Pseudomonas exotoxin A-induced toxicity in C57BL/6 mouse assessed as survival at 12.5 mg/kg, ip once daily administered 1 hr prior to toxin challenge. Type of series: functional. The note with it: C57BL/6, ip, route intraperitoneal.
The target of series [10] is T2, Furin. The series can be described thus: Inhibition of furin-mediated Pseudomonas exotoxin A proteolysis by peptide cleavage reaction.
The subject of series [11] is U-251. The series can be described thus: Inhibition of proprotein convertase-dependent delivery of PA63-lethal toxin complex into cytosol in human U251 cells at 20 uM. Type of series: cell-based. The note with it: Bacillus anthracis.
The subject of the next series is RAW264.7. The series can be described thus: Cytotoxicity against mouse RAW264.7 cells =< 0.5 mM after 4 hrs by MTT assay. Type of series: cell-based. The note with it: raw264.7, 4 h.
Series [12] deals with U-251. As to the kind of experiment: Inhibition of proprotein convertase-mediated anthrax protective antigen-83 processing in human U251 cells at 20 uM by Western blot. Type of series: cell-based. The note with it: Bacillus anthracis. (In general: A western blot detects proteins with antibodies after separation by electrophoresis.)

Chain of Proprotein convertase subtilisin/kexin type 5 (Q92824 whole entry): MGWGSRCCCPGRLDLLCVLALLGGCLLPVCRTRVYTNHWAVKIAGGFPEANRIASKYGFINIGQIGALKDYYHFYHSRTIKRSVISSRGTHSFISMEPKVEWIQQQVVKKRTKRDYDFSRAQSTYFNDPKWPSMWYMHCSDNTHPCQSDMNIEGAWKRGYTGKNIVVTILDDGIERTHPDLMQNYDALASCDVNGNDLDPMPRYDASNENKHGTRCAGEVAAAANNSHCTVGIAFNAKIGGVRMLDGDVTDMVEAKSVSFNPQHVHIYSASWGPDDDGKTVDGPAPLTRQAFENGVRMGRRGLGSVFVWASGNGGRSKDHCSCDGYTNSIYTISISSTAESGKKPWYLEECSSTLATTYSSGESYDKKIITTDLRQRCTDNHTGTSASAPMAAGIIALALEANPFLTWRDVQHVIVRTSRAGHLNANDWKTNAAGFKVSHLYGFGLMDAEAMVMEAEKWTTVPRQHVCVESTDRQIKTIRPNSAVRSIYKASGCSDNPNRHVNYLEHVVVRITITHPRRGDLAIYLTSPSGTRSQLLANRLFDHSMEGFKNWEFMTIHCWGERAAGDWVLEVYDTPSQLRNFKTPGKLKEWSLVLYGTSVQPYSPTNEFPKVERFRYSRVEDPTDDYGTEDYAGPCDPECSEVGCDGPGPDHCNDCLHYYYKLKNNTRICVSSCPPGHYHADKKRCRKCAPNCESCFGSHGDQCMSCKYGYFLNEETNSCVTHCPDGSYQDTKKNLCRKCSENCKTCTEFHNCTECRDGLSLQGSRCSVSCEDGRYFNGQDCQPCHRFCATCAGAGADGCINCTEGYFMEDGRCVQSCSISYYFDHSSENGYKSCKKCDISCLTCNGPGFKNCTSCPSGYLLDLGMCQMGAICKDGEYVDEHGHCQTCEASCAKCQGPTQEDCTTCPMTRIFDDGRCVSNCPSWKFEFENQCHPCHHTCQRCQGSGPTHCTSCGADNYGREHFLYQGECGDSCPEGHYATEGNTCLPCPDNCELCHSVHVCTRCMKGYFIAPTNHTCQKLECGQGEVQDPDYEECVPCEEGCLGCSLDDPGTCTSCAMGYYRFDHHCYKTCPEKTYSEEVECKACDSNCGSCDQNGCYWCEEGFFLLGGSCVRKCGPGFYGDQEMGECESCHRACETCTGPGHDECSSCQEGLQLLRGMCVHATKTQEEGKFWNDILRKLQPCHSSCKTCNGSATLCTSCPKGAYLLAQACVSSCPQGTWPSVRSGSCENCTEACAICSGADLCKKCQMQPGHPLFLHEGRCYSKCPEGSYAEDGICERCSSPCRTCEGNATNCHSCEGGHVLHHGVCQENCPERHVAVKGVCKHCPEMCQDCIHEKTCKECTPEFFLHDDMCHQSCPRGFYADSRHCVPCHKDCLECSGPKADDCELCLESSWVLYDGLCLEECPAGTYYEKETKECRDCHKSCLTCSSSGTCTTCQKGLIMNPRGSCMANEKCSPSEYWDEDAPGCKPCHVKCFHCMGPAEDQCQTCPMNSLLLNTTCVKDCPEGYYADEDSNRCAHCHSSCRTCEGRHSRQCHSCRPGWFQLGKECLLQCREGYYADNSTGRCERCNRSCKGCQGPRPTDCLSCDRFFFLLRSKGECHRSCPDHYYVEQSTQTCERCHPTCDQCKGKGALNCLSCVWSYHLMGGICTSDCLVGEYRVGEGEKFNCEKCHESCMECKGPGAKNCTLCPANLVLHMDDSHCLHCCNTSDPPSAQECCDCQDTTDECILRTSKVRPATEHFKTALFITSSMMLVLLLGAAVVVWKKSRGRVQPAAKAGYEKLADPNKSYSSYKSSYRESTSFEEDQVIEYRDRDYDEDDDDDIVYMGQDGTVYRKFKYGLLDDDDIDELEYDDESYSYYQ
T2 sequence (P09958 whole entry): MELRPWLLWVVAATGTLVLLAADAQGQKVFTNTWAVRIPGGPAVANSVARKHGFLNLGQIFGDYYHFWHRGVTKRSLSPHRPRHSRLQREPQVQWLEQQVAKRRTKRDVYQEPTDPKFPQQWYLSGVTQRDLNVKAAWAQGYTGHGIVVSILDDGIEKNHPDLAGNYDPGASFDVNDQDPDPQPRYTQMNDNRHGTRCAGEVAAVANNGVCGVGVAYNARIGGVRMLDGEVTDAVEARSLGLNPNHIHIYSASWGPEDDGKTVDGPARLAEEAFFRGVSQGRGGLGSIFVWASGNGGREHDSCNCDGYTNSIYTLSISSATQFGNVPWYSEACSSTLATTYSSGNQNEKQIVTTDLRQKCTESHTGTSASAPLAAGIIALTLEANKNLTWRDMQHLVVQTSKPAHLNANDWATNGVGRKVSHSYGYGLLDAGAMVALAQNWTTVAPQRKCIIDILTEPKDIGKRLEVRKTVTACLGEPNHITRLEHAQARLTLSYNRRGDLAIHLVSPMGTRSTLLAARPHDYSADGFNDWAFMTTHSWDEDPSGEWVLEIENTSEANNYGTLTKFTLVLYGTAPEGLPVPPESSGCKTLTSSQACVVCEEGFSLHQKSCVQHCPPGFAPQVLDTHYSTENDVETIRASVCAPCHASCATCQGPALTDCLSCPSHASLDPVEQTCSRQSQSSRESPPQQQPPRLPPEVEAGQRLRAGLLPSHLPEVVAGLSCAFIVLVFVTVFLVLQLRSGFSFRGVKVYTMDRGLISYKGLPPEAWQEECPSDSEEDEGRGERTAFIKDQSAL

Regarding `CNC(=O)[C@H](Cc1c[nH]c2ccccc12)NC(=O)[C@@H](CC(=O)NO)CC(C)C`, in the series with U-251 [1], the outcome was Active.
For the molecule `C[C@H](NC(=O)[C@H](CCCNC(=N)N)NC(=O)[C@@H]1CCCN1C(=O)[C@@H](NC(=O)CCN)[C@@H](C)O)C(=O)N[C@@H](CCCNC(=N)N)C(=O)N[C@@H](CCCNC(=N)N)C(=O)N[C@@H](CCCNC(=N)N)C(=O)N[C@@H](CCCCN)C(=O)N[C@@H](CCCCN)C(=O)N[C@@H](CCCNC(=N)N)C(=O)N[C@H](C(N)=O)[C@@H](C)O` (H-[βAla]TPRARRRKKRT-NH2), in the series on Bacillus anthracis [2], the Survival worked out at 6.63 days. In addition, in the series with Bacillus anthracis [3], the Activity was 40%.
As to `O=C(O)c1cn(C2CC2)c2cc(N3CCNCC3)c(F)cc2c1=O` [CIPROFLOXACIN], the Survival with Bacillus anthracis [4] was determined as 6 days.
In the case of H-TPQRARRRKKRF-OH, the Ki (in general, a dissociation constant, usually derived from enzyme kinetics or from competition with a known ligand) was found to be 1130 nM in series [5]; 38 nM at Furin [6]; 602 nM in [7]; 806 nM in series [8]; 772 nM in series [9].
The like results for H-TPQRARRRKKRT-OH were, in that order, 206 nM, 33 nM, 296 nM, 188 nM and 515 nM.
In the case of H-TPQRARRRKKRW-OH, the Ki in series [5] was determined as 172 nM; on Furin [6] it was 34 nM; in [7], 192 nM; in [8], 433 nM; in series [9], 952 nM.
The like results for H-TPQRARRRKKRY-OH were, in that order, 1220 nM, 47 nM, 1020 nM, 649 nM and 624 nM.
The like results for H-TPRARRRKKRI-NH2 were, in that order, 135 nM, 30 nM, 267 nM, 492 nM and 562 nM.
For H-TPRARRRKKRT-NH2, in the series with Mus musculus, the survival at 12.5 mg/kg stood at 60%. For the same molecule, the Ki in series [5] came to 135 nM; in series [7], 162 nM; in series [8] it was 232 nM; in series [9], 441 nM. Also, the outcome on Furin [10], in the series on U-251 [11], in the series on U-251 [1] and in the series on U-251 [12] was Active. Moreover, the Activity entry in the series with RAW264.7 is listed as “Non-toxic”.

The record behind these values is ChEMBL document CHEMBL1156471, “Targeting host cell furin proprotein convertases as a therapeutic strategy against bacterial toxins and viral pathogens” (J Biol Chem, 2007).
